The values below come from US10526322B2, “Inhibitors of kidney-type glutaminase, GLS-1” (CORNELL UNIVERSITY, priority 2014, dated 2020).

One assay addresses T1, 488-GAC and QSY9-GAC (Mus musculus, UniProt D3Z7P3).
T1 construct: (residues 72-603) was cloned into a pET23a vector; His-tag with thrombin cleavage site (N, cleaved yes); made in house
T1 sequence (D3Z7P3 72-603 isoform D3Z7P3-2): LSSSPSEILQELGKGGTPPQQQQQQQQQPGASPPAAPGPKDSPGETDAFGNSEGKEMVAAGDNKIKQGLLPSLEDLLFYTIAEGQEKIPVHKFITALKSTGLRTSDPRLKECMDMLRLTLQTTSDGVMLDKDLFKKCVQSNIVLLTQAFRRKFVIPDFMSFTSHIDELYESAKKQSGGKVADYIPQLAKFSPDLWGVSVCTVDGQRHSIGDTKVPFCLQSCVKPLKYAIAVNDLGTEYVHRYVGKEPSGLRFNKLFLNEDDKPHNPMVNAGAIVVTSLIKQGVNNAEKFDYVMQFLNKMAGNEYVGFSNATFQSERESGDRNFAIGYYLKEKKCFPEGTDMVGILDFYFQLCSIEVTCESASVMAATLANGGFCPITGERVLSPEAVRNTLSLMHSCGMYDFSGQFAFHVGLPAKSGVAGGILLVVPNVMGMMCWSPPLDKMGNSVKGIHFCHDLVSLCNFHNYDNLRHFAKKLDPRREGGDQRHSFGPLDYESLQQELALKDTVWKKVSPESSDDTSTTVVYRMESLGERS
The assay is described as follows: FRET assay for GAC tetramer formation. Format: binding. The conditions noted are these: 25 nM 488-GAC and 25 nM QSY9-GAC. The method, then:
Fluorescence experiments were performed using a Varian Cary Eclipse Fluorometer in the counting mode. Excitation and emission wavelengths were 490 and 520 nm, respectively. Experiments were all performed using 1-mL samples with continuous stirring at 20° C. in 50 mM Tris-Acetate, pH 8.5, 0.1 mM ethylenediamine tetraacetic acid (EDTA). For wild-type (WT) GAC titrations in the absence of inorganic phosphate, 25 nM 488-GAC was equilibrated with 25 μL of QSY9-GAC (at varying concentrations) and allowed to equilibrate for 10 minutes, at which point 75 μL of the appropriate concentration of unlabeled WT GAC was added to provide a 10-fold excess over labeled-GAC. To test whether the purified GAC mutants can form oligomers with WT GAC, 200 nM QSY9-GAC (D391K) or 200 nM QSY9-GAC (D391K, K316E, R459E) was added to an equilibrated sample of 20 nM 488-WT GAC. When assaying the effects of BPTES and 968 on oligomer formation, BPTES or 968 was added following equilibration of a sample of 25 nM QSY9-WT GAC and 25 nM 488-WT GAC. Both BPTES and 968 were prepared in DMSO, and appropriate dilutions were made so that less than 2% (v/v) DMSO was added to an experimental sample.

The target in assay [1] is T2, 488-GAC (mouse kidney-type glutaminase isoform 2, GAC) (Mus musculus, UniProt D3Z7P3).
T2 construct: (residues 72-603) was cloned into a pET23a vector; His-tag with thrombin cleavage site (N, cleaved yes); made in house
T2 sequence (D3Z7P3 72-603 isoform D3Z7P3-2): T1 sequence (D3Z7P3 72-603 isoform D3Z7P3-2)
The assay is described as follows: Real-time binding assay, quenching of 488-GAC fluorescence. Conditions: 10 nM 488-GAC, 96-well plate format; read-out: KD of binding isotherm (fluorescence quenching). How it is done:
A plasmid encoding the mouse kidney-type glutaminase isoform 2 (GAC, GenBank Accession No. NP_001106854.1, which is hereby incorporated by reference in its entirety) (residues 72-603) was cloned into a pET23a vector containing an N-terminal histidine (His)-tag and thrombin cleavage site. The expressed protein was purified using Co^2+ affinity beads (Clontech), followed by His-tag cleavage with human thrombin (Haemetologic Technologies) overnight at 4° C., and subsequently purified by anion exchange (GE healthcare) and gel filtration chromatography. […] The stoichiometry of labeling was determined using the probe manufacturer's reported molar absorptivity values and instructions. Briefly, the concentration of GAC was determined by first correcting absorbance at 280 nm (Abs280) for each probe, using the reported correction values (0.11 for AlexaFluor 488 and 0.23 for QSY-9) and their absorbance values at their absorbance maxima (495 nm and 562 nm, respectively). The corrected Abs280 was used along with the experimentally determined molar absorptivity of GAC (ε280=38,850 M−1 cm−1). AlexaFluor 488 and QSY-9 probes were quantified using their respective absorbance maxima and the manufacturer's reported molar absorptivity values (ε495=71,000 M−1 cm−1 and ε562=85,000 M−1 cm−1). […]

One may read the Kd as the equilibrium constant for the complex coming apart. As for `CN(C)c1ccc(C2Nc3ccc4ccccc4c3C3=C2C(=O)CC(C)(C)C3)cc1Br` (centres unmarked) [Compound 968], the “effect on GAC tetramer formation (488-GAC emission in mixture with QSY9-GAC)” value on 488-GAC and QSY9-GAC is given as “does not appear to interfere with GAC tetramer formation”. Also, the Kd in assay [1] is 3000 nM.
